Measured values: PMC12266748, “A Xanthine Derivative With Novel Heat Shock Protein 90‐Alpha Inhibitory and Senolytic Properties” (Aging Cell, 2025)

Experiments:
Format in all cases: cell-based, Homo sapiens
WI38 cells = assay: SA-β-galactosidase colorimetric assay on senescent WI38
Protocol: (§1) Previously treated cells were fixed according to the protocols established by the supplier (Cell Signaling). The images were acquired using an optical microscope (Leica) with 5× and 10× magnification (MAG) or the phase microscopy EVOS XL Core at 10× MAG and analyzed using the ImageJ software. The mean signal intensity was then normalized for the total number of cells.
β-galactosidase colorimetric assay. For cell cultures: Previously treated cells were fixed with the fixative solution for 10 min at RT according to the protocols established by the supplier (Senescence β-Galactosidase Staining Kit, #9860S, Cell Signaling, Danvers, MA, USA) Cells were then incubated with the substrate, X-gal, in a solution at pH 6, at 37°C, overnight (16 h) (Itahana et al. 2007). The images were acquired using an optical microscope (Leica, Wetzlar, Germany) with 5 and 10X magnification or the phase microscopy EVOS XL Core at 10X magnification. The images were analyzed using the ImageJ software, quantifying the colorimetric signal emitted by each cell. The mean signal intensity was then normalized for the total number of cells.

MCF7 cells [1] = assay: SA-β-galactosidase colorimetric assay on Tamoxifen-treated MCF7
Protocol: as §1
MCF7 cell line (ATCC; HTB-22, Homo sapiens, breast cancer) was purchased from ATCC; cells were grown in MEM medium (Corning, New York, USA, #15-010-CVR) supplemented with 10% FBS (Gibco, Invitrogen, Carlsbad, CA, USA, #10270106), 1% glutamine (Corning #25005-CI), 1% penicillin and streptomycin (Corning #30002-CI). Cells were incubated at 37 °C with 5% CO2. […] Cell mortality and vitality curves after treatment with K5 (10 μM, orange) or Vehicle (DMSO, grey) were monitored using the Incucyte live-cell Analysis system (Sartorius, Goettingen, Germany). The estimated Senolytic index (SI) was calculated as the ratio between the EC50 in proliferating cells and the EC50 in senescent cells, extrapolated using GraphPad Prism 10 software.
β-galactosidase colorimetric assay. […] The images were analyzed using the ImageJ software, quantifying the colorimetric signal emitted by each cell. […]

MCF7 cells [2] = assay: Western blot of MCF7 protein expression after Tamoxifen treatment; settings: MCF7, TAM 10 μM + K5 10 μM, compared to DMSO
Protocol: WB was performed according to standard procedures and detected by UVITEC (Eppendorf). Densitometric analysis was performed with NIH ImageJ 1.8 software.
Western Blot. WB was performed according to standard procedures. Total protein extract was performed as in (Aiello et al. 2016). Western blot assay used 10 µg of protein extract and proteins solved by SDS-PAGE. […] Densitometric analysis was performed with NIH Image J 1.8 software (National Institutes of Health, Bethesda, MD, USA), and specific values were normalized to loading control (β-Actin).

Cc1ccccc1-n1c(=O)n(Cc2ccccc2)c(=O)c2[nH]cnc21 [Compound K5, 1-benzyl-3-(2-methylphenyl)-7H-purine-2,6-dione] was tested, and the “reduced SA-β-gal+ cells” value (WI38 cells) was 10%, the “SA-β-gal positive senescent cells” value (MCF7 cells [1]; MCF7, TAM 10 μM 96 h then K5 10 μM 24 to 96 h, Vehicle 40%) was 10% and the “reduced SA-β-gal” value (MCF7 cells [1]; Tamoxifen-induced senescent MCF7) was 30%. The “Caspase 3 protein level” value (MCF7 cells [2]) was “further increased”.
